Measurements from patent US7872018B2, “Compounds and methods for kinase modulation, and indications therefor” (Plexxikon, Inc., priority 2006, dated 2011).

Tests used:
B-Raf V600E/T529I = B-Raf V600E/T529I (Homo sapiens, UniProt P15056, T529I/V600E); assay: B-Raf V600E/T529I kinase activity assay; assay type: biochemical; details: under the test conditions employed; read-out: IC50 toward kinase B-Raf V600E/T529I
Flt1 = Flt1 (Homo sapiens, UniProt P17948); assay: Flt1 kinase activity assay; assay type: biochemical; details: under the test conditions employed; read-out: IC50 toward kinase Flt1
Sequence of Flt1 (P17948 27-1338): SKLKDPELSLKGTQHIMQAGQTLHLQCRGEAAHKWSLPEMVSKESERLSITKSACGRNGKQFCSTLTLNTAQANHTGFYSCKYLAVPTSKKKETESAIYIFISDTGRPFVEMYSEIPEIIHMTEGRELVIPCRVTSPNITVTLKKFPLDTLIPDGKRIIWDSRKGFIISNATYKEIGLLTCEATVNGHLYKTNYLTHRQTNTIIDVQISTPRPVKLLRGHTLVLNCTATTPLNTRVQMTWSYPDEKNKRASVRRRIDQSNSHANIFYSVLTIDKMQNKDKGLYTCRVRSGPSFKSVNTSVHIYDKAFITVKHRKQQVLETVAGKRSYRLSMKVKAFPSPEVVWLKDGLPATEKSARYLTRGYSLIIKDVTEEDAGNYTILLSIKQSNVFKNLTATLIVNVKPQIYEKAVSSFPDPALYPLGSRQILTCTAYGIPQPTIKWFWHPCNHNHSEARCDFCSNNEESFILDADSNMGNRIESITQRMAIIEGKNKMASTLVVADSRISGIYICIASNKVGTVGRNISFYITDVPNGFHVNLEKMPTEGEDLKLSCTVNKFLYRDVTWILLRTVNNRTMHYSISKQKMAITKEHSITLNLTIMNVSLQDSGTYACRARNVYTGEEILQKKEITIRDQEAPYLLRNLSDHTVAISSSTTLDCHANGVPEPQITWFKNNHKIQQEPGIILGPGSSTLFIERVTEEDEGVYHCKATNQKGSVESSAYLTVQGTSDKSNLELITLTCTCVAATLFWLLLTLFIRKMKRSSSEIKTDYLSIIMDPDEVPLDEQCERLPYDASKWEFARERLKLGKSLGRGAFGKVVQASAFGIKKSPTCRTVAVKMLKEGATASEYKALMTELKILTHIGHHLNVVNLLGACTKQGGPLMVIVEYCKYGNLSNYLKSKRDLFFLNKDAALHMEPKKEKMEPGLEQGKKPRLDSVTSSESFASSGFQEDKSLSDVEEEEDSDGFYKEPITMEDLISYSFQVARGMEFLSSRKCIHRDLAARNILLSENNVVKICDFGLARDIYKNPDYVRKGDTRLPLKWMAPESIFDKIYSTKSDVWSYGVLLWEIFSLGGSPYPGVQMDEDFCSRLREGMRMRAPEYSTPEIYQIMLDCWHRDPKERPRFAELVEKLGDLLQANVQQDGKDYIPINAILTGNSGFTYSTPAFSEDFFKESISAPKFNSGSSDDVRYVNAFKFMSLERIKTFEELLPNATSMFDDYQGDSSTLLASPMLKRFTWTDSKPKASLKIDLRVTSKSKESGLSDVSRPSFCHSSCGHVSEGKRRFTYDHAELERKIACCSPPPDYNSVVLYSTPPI

Fms = target: T1, Fms (Homo sapiens, UniProt P07333); assay: Fms biochemical assay (AlphaScreen or 33P-ATP); details: under the test conditions employed; read-out: IC50 toward kinase Fms
T1 construct: purchased Upstate Biotech 14-551
T1 sequence (P07333 20-972): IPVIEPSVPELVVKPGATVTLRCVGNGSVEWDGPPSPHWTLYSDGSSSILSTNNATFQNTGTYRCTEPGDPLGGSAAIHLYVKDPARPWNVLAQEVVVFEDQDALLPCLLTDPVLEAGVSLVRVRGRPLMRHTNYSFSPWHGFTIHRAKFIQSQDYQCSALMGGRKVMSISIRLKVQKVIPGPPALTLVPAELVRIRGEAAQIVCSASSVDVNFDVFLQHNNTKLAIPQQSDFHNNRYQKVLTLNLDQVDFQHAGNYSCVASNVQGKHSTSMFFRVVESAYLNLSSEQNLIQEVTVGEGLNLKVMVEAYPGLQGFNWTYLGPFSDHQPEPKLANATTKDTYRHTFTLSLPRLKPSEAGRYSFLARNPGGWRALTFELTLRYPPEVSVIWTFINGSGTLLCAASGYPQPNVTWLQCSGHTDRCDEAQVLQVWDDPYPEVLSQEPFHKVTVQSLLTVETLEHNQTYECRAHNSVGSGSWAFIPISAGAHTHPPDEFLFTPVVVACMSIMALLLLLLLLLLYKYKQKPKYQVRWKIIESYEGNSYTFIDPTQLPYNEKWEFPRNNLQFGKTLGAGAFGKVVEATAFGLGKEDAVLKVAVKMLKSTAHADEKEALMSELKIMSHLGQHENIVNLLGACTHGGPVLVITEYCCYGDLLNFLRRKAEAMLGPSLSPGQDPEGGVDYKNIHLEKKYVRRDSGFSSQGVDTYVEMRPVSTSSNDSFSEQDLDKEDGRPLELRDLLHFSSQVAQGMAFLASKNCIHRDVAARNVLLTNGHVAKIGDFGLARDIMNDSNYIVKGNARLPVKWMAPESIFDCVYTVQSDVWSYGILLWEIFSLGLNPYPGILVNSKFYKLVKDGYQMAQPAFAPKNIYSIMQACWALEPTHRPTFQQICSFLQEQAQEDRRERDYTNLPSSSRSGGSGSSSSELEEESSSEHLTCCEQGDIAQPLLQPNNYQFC
Description: Each sample was at 5% DMSO.

Kdr = Kdr (Homo sapiens, UniProt P35968); assay: Kdr kinase activity assay; assay type: biochemical; details: under the test conditions employed; read-out: IC50 toward kinase Kdr
Sequence of Kdr (P35968 20-1356): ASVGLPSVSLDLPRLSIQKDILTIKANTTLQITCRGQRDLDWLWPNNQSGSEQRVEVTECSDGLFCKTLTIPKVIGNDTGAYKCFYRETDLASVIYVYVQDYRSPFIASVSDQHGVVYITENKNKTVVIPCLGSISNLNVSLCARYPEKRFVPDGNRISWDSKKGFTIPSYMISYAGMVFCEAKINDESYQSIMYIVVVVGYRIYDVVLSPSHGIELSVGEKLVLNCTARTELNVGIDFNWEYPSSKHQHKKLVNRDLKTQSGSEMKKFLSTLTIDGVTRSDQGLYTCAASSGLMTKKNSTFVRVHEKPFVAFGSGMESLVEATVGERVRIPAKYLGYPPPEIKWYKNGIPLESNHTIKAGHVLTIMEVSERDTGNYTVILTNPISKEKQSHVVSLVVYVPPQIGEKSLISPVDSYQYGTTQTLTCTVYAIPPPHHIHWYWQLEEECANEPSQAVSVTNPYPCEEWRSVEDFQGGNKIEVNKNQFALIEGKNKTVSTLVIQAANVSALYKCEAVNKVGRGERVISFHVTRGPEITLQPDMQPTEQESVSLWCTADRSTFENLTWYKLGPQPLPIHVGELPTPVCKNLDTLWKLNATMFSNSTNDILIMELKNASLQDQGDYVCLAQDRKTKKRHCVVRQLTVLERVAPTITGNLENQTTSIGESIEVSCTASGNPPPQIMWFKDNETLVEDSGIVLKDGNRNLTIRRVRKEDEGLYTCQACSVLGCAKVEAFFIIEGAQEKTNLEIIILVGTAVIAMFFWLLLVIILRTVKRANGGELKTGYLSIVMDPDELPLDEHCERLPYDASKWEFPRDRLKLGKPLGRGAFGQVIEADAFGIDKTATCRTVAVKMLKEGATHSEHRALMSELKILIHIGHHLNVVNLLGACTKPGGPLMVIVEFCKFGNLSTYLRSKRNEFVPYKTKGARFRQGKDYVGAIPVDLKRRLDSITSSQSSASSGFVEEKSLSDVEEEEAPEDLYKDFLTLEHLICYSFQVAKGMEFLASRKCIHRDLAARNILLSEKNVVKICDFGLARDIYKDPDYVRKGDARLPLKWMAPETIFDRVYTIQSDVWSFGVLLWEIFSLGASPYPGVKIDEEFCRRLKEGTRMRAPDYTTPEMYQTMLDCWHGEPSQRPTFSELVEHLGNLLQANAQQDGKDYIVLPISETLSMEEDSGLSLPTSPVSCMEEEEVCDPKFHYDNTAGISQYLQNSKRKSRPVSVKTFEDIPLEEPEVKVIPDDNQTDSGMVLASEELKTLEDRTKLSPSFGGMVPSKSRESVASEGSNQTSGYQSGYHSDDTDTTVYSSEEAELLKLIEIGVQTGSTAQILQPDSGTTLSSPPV

B-Raf = B-Raf (Homo sapiens, UniProt P15056); assay: B-Raf kinase activity assay; assay type: biochemical; details: under the test conditions employed; read-out: IC50 toward kinase B-Raf
Sequence of B-Raf (P15056 whole entry): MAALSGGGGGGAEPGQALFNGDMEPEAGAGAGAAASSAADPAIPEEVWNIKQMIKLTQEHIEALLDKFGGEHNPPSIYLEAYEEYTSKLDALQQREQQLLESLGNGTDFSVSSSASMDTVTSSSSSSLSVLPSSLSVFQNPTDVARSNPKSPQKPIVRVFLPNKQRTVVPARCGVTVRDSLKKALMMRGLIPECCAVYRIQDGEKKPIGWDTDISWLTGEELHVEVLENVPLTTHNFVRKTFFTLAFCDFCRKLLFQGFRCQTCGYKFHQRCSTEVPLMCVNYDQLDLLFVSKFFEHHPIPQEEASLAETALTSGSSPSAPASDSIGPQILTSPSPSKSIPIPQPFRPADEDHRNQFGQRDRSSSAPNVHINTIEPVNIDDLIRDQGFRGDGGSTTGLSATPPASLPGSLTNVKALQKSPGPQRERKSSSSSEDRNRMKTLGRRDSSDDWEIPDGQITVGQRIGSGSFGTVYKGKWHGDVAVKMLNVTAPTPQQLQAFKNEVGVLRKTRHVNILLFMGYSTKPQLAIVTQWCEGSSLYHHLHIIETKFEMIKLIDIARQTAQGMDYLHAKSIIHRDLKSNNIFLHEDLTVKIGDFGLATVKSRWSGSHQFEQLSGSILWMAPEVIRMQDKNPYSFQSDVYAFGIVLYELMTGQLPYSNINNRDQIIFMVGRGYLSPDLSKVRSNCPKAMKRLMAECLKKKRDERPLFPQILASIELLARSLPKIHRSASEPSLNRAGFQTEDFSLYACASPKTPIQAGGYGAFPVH

B-Raf V600E = B-Raf V600E (Homo sapiens, UniProt P15056, V600E); assay: B-Raf V600E kinase activity assay; assay type: biochemical; details: under the test conditions employed; read-out: IC50 toward kinase B-Raf V600E
Sequence of B-Raf V600E (P15056 whole entry V600E): as the sequence (P15056 whole entry) above, with V600E counted along it

c-Raf-1 = c-Raf-1 (Homo sapiens, UniProt P04049); assay: c-Raf-1 kinase activity assay; assay type: biochemical; details: under the test conditions employed; read-out: IC50 toward kinase c-Raf-1
Fak = Fak (Homo sapiens, UniProt Q05397); assay: Fak kinase activity assay; assay type: biochemical; details: under the test conditions employed; read-out: IC50 toward kinase Fak
Kit = target: T2, Kit (Homo sapiens, UniProt P10721); assay: c-kit biochemical assay (AlphaScreen or 33P-ATP); details: under the test conditions employed; read-out: IC50 toward kinase Kit
T2 construct: P1332.N6 BI PTP KIT M552-K948-X COD; made in house; host or cells: E. coli BL21(DE3)RIL, co-expressed with PTP1B
T2 sequence (P10721 552-948): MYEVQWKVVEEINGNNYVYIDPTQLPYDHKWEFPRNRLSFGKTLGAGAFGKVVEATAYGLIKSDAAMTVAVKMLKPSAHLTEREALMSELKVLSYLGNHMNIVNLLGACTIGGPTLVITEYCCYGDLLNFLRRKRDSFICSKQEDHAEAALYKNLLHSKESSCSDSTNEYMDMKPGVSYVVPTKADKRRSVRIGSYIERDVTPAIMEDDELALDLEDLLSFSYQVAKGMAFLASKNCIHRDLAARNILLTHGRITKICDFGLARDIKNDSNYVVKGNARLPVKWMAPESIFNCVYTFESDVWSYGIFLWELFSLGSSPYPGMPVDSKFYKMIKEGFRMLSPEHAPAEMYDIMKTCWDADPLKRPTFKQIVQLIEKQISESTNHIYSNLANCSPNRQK
Procedure, shortened: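 Kinase activity read by AlphaScreen or 33P-ATP incorporation, with c-kit enzyme at 1 ng per sample. The enzyme was either commercial or a recombinant human kit construct made from a gene-synthesized coding sequence.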

Src = Src (Homo sapiens, UniProt P12931); assay: Src kinase activity assay; assay type: biochemical; details: under the test conditions employed; read-out: IC50 toward kinase Src
Jnk1 = Jnk1 (Homo sapiens, UniProt P45983); assay: Jnk1 kinase activity assay; assay type: biochemical; details: under the test conditions employed; read-out: IC50 toward kinase Jnk1
FGFR = FGFR (Homo sapiens, UniProt P11362); assay: FGFR kinase activity assay; assay type: biochemical; details: under the test conditions employed; read-out: IC50 toward kinase FGFR
Met = Met (Homo sapiens, UniProt P08581); assay: Met kinase activity assay; assay type: biochemical; details: under the test conditions employed; read-out: IC50 toward kinase Met
Btk = Btk (Homo sapiens, UniProt Q06187); assay: Btk kinase activity assay; assay type: biochemical; details: under the test conditions employed; read-out: IC50 toward kinase Btk
TrkA = target: T3, TrkA (Homo sapiens, UniProt P04629); assay: TrkA biochemical assay (AlphaScreen); details: under the test conditions employed; read-out: IC50 toward kinase TrkA
T3 construct: purchased Upstate Biotech 14-571
Protocol: Compounds tested were dissolved in DMSO (1 μL) and added to a white 384-well plate (Costar #3705). […] Each sample was at 5% DMSO. The plate was then incubated for 40 minutes at room temperature.

Measured: IC50

Sequence of B-Raf V600E/T529I (P15056 whole entry T529I/V600E): as the sequence (P15056 whole entry) above, with T529I, V600E counted along it

COc1cnc2[nH]cc(C(=O)c3c(Cl)ccc(OCC(F)(F)F)c3Cl)c2c1 [P-2154, [2,6-Dichloro-3-(2,2,2-trifluoro-ethoxy)-phenyl]-(5-methoxy-1H-pyrrolo[2,3-b]pyridin-3-yl)-methanone]
≤ 10 µM: B-Raf V600E/T529I | Flt1 | Fms | Kdr

COc1cc(Cc2c[nH]c3ncccc23)ccc1OCc1ccc(Cl)cc1 [P-1247, 3-(4-(4-chlorobenzyloxy)-3-methoxybenzyl)-1H-pyrrolo[2,3-b]pyridine]
≤ 10 µM: B-Raf | B-Raf V600E | c-Raf-1 | Fak | Flt1 | Fms | Kit | Src

Cn1cc(-c2cnc3[nH]cc(C(=O)c4c(Cl)ccc(OCC(F)(F)F)c4Cl)c3c2)cn1 [P-2151, [2,6-Dichloro-3-(2,2,2-trifluoro-ethoxy)-phenyl]-[5-(1-methyl-1H-pyrazol-4-yl)-1H-pyrrolo[2,3-b]pyridin-3-yl]-methanone]
≤ 10 µM: B-Raf | B-Raf V600E/T529I | Flt1 | Fms | Kdr | Kit | Src

Fc1cc(Cc2c[nH]c3ncccc23)ccc1OCc1ccc(Cl)cc1 [P-1896, 3-[4-(4-Chloro-benzyloxy)-3-fluoro-benzyl]-1H-pyrrolo[2,3-b]pyridine]
≤ 10 µM: Jnk1

COCCOc1ccc(F)c(Cc2c[nH]c3ncc(Cl)cc23)c1Cl [P-2157, 5-Chloro-3-[2-chloro-6-fluoro-3-(2-methoxy-ethoxy)-benzyl]-1H-pyrrolo[2,3-b]pyridine]
≤ 10 µM: FGFR | Fms | Kdr | Kit | Met

Cn1cc(-c2cnc3[nH]cc(C(=O)c4c(F)ccc(OCC(F)(F)F)c4Cl)c3c2)cn1 [P-2145, [2-Chloro-6-fluoro-3-(2,2,2-trifluoro-ethoxy)-phenyl]-[5-(1-methyl-1H-pyrazol-4-yl)-1H-pyrrolo[2,3-b]pyridin-3-yl]-methanone]
≤ 10 µM: B-Raf | Btk | Flt1 | Fms | Kdr | Kit | Src | TrkA

O=C(c1ccc(OCc2ccc(Cl)cc2)c(F)c1)c1c[nH]c2ncccc12 [P-1897, [4-(4-chloro-benzyloxy)-3-fluoro-phenyl]-(1H-pyrrolo[2,3-b]pyridin-3-yl)-methanone]
≤ 10 µM: Jnk1

Cn1cc(-c2cnc3[nH]cc(Cc4c(Cl)ccc(OCC(F)(F)F)c4Cl)c3c2)cn1 [P-2152, 3-[2,6-Dichloro-3-(2,2,2-trifluoro-ethoxy)-benzyl]-5-(1-methyl-1H-pyrazol-4-yl)-1H-pyrrolo[2,3-b]pyridine]
≤ 10 µM: B-Raf V600E/T529I | Fms | Kdr

COc1cc(Cc2c[nH]c3ncccc23)c(Cl)cc1OCc1ccc(Cl)cc1F [P-2166, 3-[2-chloro-4-(4-chloro-2-fluoro-benzyloxy)-5-methoxy-benzyl]-1H-pyrrolo[2,3-b]pyridine]
≤ 10 µM: B-Raf V600E/T529I | Fms | Kdr

Fc1cc(Cc2c[nH]c3ncc(Cl)cc23)c(Cl)cc1OCc1cccnc1 [P-2156, 5-Chloro-3-[2-chloro-5-fluoro-4-(pyridin-3-ylmethoxy)-benzyl]-1H-pyrrolo[2,3-b]pyridine]
≤ 10 µM: B-Raf V600E/T529I | Fms | Kdr | Kit
